The source of these data is PubChem BioAssay (NCI).

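48-hour exposure; five concentrations; linearly interpolated endpoints. GI50 = concentration required for 50% inhibition of growth. TGI: concentration producing complete growth inhibition.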

Test systems include U251 CNS; MDA-N; COLO 205 colon; SK-MEL-2 melanoma; MALME-3M melanoma; CCRF-CEM leukemia; NCI-H522 lung; SF-539 CNS; OVCAR-3 ovarian; CAKI-1 renal.
Holding throughout (experiment): NCI anticancer screen, dose series, 48 h

In the case of `O=[N+]([O-])c1ccc(/C=N\Nc2ccc([N+](=O)[O-])cn2)cc1`, the TGI with U251 CNS, in the assay on MDA-N, in the assay on COLO 205 colon, with SK-MEL-2 melanoma, with MALME-3M melanoma and in the assay on CCRF-CEM leukemia was greater than 100 µM each time. The TGI is greater than 100 µM in the assay with NCI-H522 lung, 82.8 µM in the assay with SF-539 CNS and greater than 100 µM in the assay with OVCAR-3 ovarian.
As for `COc1ccc2[nH]c3c([N+](=O)[O-])ccc(Cl)c3c(=O)c2c1`, the TGI with U251 CNS was greater than 64.1 µM; in the assay with CAKI-1 renal, 49.5 µM; in the assay on MDA-N it was greater than 55.6 µM; with COLO 205 colon, 32.7 µM; in the assay with SK-MEL-2 melanoma, 58.5 µM; in the assay with MALME-3M melanoma it was 40.4 µM. For the same compound, the TGI with CCRF-CEM leukemia stood at 10.2 µM; with NCI-H522 lung, 36.9 µM; in the assay on SF-539 CNS, 34.2 µM; in the assay on OVCAR-3 ovarian, 31.7 µM.
`C=C1CC23CCC4C(C)(C(=O)O)CCCC4(C)C2CCC1C3` (stereo not given): the TGI in the assay with U251 CNS is greater than 100 µM; in the assay with CAKI-1 renal it was greater than 100 µM; with MDA-N, greater than 100 µM; with COLO 205 colon, 39.5 µM; in the assay with SK-MEL-2 melanoma it was greater than 100 µM; in the assay on MALME-3M melanoma, greater than 100 µM. For the same compound, the TGI in the assay on CCRF-CEM leukemia was greater than 100 µM; with NCI-H522 lung it was 89.7 µM; in the assay with SF-539 CNS it was greater than 100 µM; in the assay on OVCAR-3 ovarian it was greater than 100 µM.
In the case of `c1ccc(-n2cnnc2-c2nsc3ccccc23)cc1`, the TGI in the assay on U251 CNS, in the assay with COLO 205 colon, with SK-MEL-2 melanoma, with CCRF-CEM leukemia, in the assay on SF-539 CNS and in the assay on OVCAR-3 ovarian was greater than 100 µM in each case.
As to `C/C1=N\NC(=O)c2ccccc2C(=O)N/N=C(\C)c2cccc1n2.O=[N+]([O-])[O-].[Zn+2]`, the TGI with U251 CNS, in the assay with CAKI-1 renal, with COLO 205 colon, with SK-MEL-2 melanoma, in the assay on MALME-3M melanoma and in the assay with CCRF-CEM leukemia was greater than 100 µM throughout. Moreover, the TGI in the assay on NCI-H522 lung, in the assay on SF-539 CNS and with OVCAR-3 ovarian was greater than 100 µM throughout.
In the case of `COc1cc(C(C)(C)C)cc(OC)c1C(O)(c1c(OC)cc(C(C)(C)C)cc1OC)c1c(OC)cc(C(C)(C)C)cc1OC`, the GI50 with U251 CNS was 0.0636 µM; with COLO 205 colon, 0.188 µM; in the assay on SK-MEL-2 melanoma, 0.325 µM; with MALME-3M melanoma, 0.234 µM; in the assay with NCI-H522 lung, 0.237 µM; in the assay with SF-539 CNS it was 0.342 µM. In the assay with OVCAR-3 ovarian, the GI50 is 0.278 µM. For the same compound, the TGI in the assay with U251 CNS came to 1.23 µM; in the assay on COLO 205 colon, 0.34 µM; in the assay with SK-MEL-2 melanoma, 0.692 µM; in the assay on MALME-3M melanoma it was 0.683 µM; with NCI-H522 lung, 0.768 µM; in the assay with SF-539 CNS, 1.22 µM. In the assay with OVCAR-3 ovarian, this compound yielded a TGI of 0.894 µM.
Regarding `O=C(O)CC(C(=O)O)C1c2ccccc2-c2ccccc21` (stereo not given), the TGI in the assay on U251 CNS, in the assay with CAKI-1 renal, with MDA-N, with COLO 205 colon, in the assay on SK-MEL-2 melanoma and in the assay on MALME-3M melanoma was greater than 100 µM each time. In addition, the TGI in the assay on CCRF-CEM leukemia, in the assay with NCI-H522 lung and with OVCAR-3 ovarian was greater than 100 µM throughout.
In the case of `C=C(C)C1CC2=C(O1)C(=O)c1ccccc1C2=O` (stereo not given), the TGI in the assay with U251 CNS came out at 30.2 µM; in the assay on CAKI-1 renal, 31.7 µM; in the assay on COLO 205 colon it was 37.4 µM; in the assay on CCRF-CEM leukemia, 52.7 µM; with NCI-H522 lung it was 39.4 µM; with SF-539 CNS, 33.7 µM. The compound further showed a TGI with OVCAR-3 ovarian of 34.4 µM.
On to `Nc1cc(S(=O)(=O)O)cc2cc(S(=O)(=O)O)c(N=Nc3ccc(-c4ccc(N=Nc5c(S(=O)(=O)O)cc6cc(S(=O)(=O)O)cc(N)c6c5O)cc4)cc3)c(O)c12`, for which the TGI with U251 CNS, in the assay with COLO 205 colon, in the assay on SK-MEL-2 melanoma, in the assay with MALME-3M melanoma, in the assay with CCRF-CEM leukemia and in the assay on NCI-H522 lung was greater than 100 µM throughout. The TGI with SF-539 CNS and with OVCAR-3 ovarian was greater than 100 µM each time.
Consider `C[C@H](C(=O)N[C@@H](Cc1ccc(-c2ccccc2)cc1)C(=O)NC1CC(C)(C)N(C)C(C)(C)C1)c1ccc(-c2ccccc2)c(F)c1`, for which the GI50 in the assay on COLO 205 colon was 1.37 µM; in the assay on SK-MEL-2 melanoma, 1.61 µM; in the assay on SF-539 CNS it was 1.56 µM; with OVCAR-3 ovarian, 1.19 µM. Also, the TGI in the assay on COLO 205 colon is 2.87 µM; in the assay with SK-MEL-2 melanoma it was 3.55 µM; with SF-539 CNS it was 3.03 µM; with OVCAR-3 ovarian it was 2.56 µM.
As to `C=C(C)[C@@H]1CC[C@]2(C(=O)Nc3ccccn3)CC[C@]3(C)[C@H](CC[C@@H]4[C@@]5(C)CCCNC(C)(C)[C@@H]5CC[C@]43C)[C@@H]12`, the GI50 with CAKI-1 renal is 1.55 µM; in the assay on MALME-3M melanoma it was 1.44 µM; in the assay on CCRF-CEM leukemia, 3.02 µM; in the assay with OVCAR-3 ovarian, 1.54 µM. Moreover, the TGI is 2.93 µM in the assay with CAKI-1 renal, 2.84 µM with MALME-3M melanoma, greater than 100 µM in the assay on CCRF-CEM leukemia and 2.92 µM with OVCAR-3 ovarian.
`OC(Cc1ccccc1)(Cc1ccccc1)c1ccccc1`: the TGI was 32.8 µM with U251 CNS; 47.7 µM in the assay with CAKI-1 renal; 29.2 µM in the assay with MDA-N; 29.6 µM in the assay on SK-MEL-2 melanoma; 27.1 µM in the assay with MALME-3M melanoma; greater than 100 µM in the assay on CCRF-CEM leukemia. In addition, the figures for the TGI in the assay with NCI-H522 lung and with OVCAR-3 ovarian were 32.3 µM and 32.8 µM, respectively.
As for `COc1ccc(-c2nn(-c3ccc(NC(=O)Nc4ccc(Cl)c(Cl)c4)cc3)cc2-c2ccncc2)cc1Cl`, the GI50 in the assay with U251 CNS is 1.36 µM; in the assay with CAKI-1 renal, 1.95 µM; in the assay with COLO 205 colon it was 2.19 µM; in the assay on SK-MEL-2 melanoma, 2.02 µM; in the assay with MALME-3M melanoma, 2.47 µM; in the assay on CCRF-CEM leukemia, 2.09 µM. Besides, the GI50 was 1.39 µM with NCI-H522 lung, 2.82 µM with SF-539 CNS and 2.64 µM with OVCAR-3 ovarian. The TGI with U251 CNS is greater than 100 µM; in the assay with CAKI-1 renal it was 15.4 µM; in the assay on COLO 205 colon, 5.27 µM; with SK-MEL-2 melanoma it was 4.76 µM; in the assay on MALME-3M melanoma, 8.47 µM; in the assay with CCRF-CEM leukemia, greater than 100 µM. The values for the TGI in the assay with NCI-H522 lung, in the assay with SF-539 CNS and in the assay with OVCAR-3 ovarian were 5.66 µM, greater than 100 µM and greater than 100 µM, respectively.
In the case of `C[N+]1(C)CCOC(O)(c2ccccc2)C1` (stereo not given), the TGI in the assay on U251 CNS, with CAKI-1 renal, in the assay on MDA-N, in the assay with COLO 205 colon, in the assay on SK-MEL-2 melanoma and in the assay on MALME-3M melanoma was greater than 100 µM each time. Further, the TGI in the assay on CCRF-CEM leukemia, in the assay with NCI-H522 lung, in the assay with SF-539 CNS and with OVCAR-3 ovarian was greater than 100 µM in each case.
Turning to `Cc1ccc(P(c2ccc(C)cc2)c2ccc(C)cc2)cc1`, the TGI in the assay on U251 CNS was determined as 43 µM; in the assay on CAKI-1 renal it was 98.5 µM; in the assay on MDA-N, 55.8 µM; in the assay on COLO 205 colon, 44.6 µM; in the assay on SK-MEL-2 melanoma it was 57.9 µM; in the assay on MALME-3M melanoma it was 42.4 µM. In addition, the TGI with CCRF-CEM leukemia was 46.5 µM; in the assay with NCI-H522 lung, 28.2 µM; with SF-539 CNS it was 37.7 µM; with OVCAR-3 ovarian, 29.5 µM.
As to `CCN(CC)C(=S)SC(=S)N(CC)CC`, the TGI in the assay on U251 CNS is greater than 100 µM; with CAKI-1 renal, 99.7 µM; in the assay on MDA-N, greater than 100 µM; with COLO 205 colon it was 45 µM; in the assay with SK-MEL-2 melanoma, greater than 100 µM; with MALME-3M melanoma, greater than 58.4 µM. Besides, the TGI was 18.2 µM in the assay with NCI-H522 lung, greater than 100 µM in the assay on SF-539 CNS and greater than 94.4 µM in the assay on OVCAR-3 ovarian.
For `CC(C)(C)C1(c2ccc(C3(c4ccccc4)Oc4ccccc4S3)[nH]2)Oc2ccccc2S1` (stereo not given), the TGI with U251 CNS, in the assay with CAKI-1 renal, with SK-MEL-2 melanoma, in the assay on MALME-3M melanoma, in the assay on CCRF-CEM leukemia and in the assay on NCI-H522 lung was greater than 100 µM throughout. Also, the TGI in the assay on SF-539 CNS and in the assay with OVCAR-3 ovarian was greater than 100 µM throughout.
For the compound `O=Nc1ccc(O)c2ncccc12`, the TGI was found to be 14.5 µM in the assay with U251 CNS; 31.1 µM in the assay with CAKI-1 renal; 6.01 µM in the assay on MDA-N; 30.6 µM in the assay on COLO 205 colon; 6.39 µM with SK-MEL-2 melanoma; 25.6 µM in the assay on MALME-3M melanoma. The TGI in the assay on CCRF-CEM leukemia was greater than 100 µM; in the assay with NCI-H522 lung, 3.58 µM; with SF-539 CNS, 4.96 µM; in the assay on OVCAR-3 ovarian, 12.4 µM.
On to `COC1/C=C\OC2(C)Oc3c(C)c(O)c4c(O)c(c(/C=N\OCCCc5ccccc5)c(O)c4c3C2=O)NC(=O)/C(C)=C\C=C/C(C)C(O)C(C)C(O)C(C)C(OC(C)=O)C1C` (stereo not given), for which the TGI in the assay with U251 CNS turned out to be 16 µM; with CAKI-1 renal, 15.2 µM; with MDA-N, 13 µM; in the assay on COLO 205 colon, 4.12 µM; with SK-MEL-2 melanoma, 5.35 µM; in the assay on MALME-3M melanoma, 12 µM. For the same compound, the TGI in the assay with CCRF-CEM leukemia was 6.35 µM; in the assay on NCI-H522 lung, 10.7 µM; in the assay on SF-539 CNS it was 7.3 µM; with OVCAR-3 ovarian, 9.61 µM.
Turning to `N=C(N)c1ccc(-c2ccc(-c3cncc4ccccc34)s2)cc1F`, the GI50 was 1.52 µM in the assay on CAKI-1 renal; 1.87 µM in the assay on COLO 205 colon; 1.74 µM in the assay with MALME-3M melanoma; 2.2 µM in the assay on NCI-H522 lung; 1.6 µM in the assay with SF-539 CNS; 1.73 µM in the assay with OVCAR-3 ovarian. Also, the TGI with CAKI-1 renal was 2.91 µM; with COLO 205 colon, 3.94 µM; in the assay on MALME-3M melanoma, 3.51 µM; in the assay on NCI-H522 lung, 5.56 µM; in the assay on SF-539 CNS, 3.04 µM; in the assay with OVCAR-3 ovarian it was 3.24 µM.
As to `C=C(C)C(=O)OC1C(C(C)CCCO)=C(CO)CC2OC(=O)C(=C)C21` (stereo not given), the TGI stood at 45.3 µM with U251 CNS; 31.3 µM in the assay with CAKI-1 renal; 37.7 µM with MDA-N; 29.3 µM in the assay on COLO 205 colon; 61.7 µM with SK-MEL-2 melanoma; 17.8 µM in the assay with MALME-3M melanoma. In addition, the TGI in the assay on CCRF-CEM leukemia is greater than 100 µM; in the assay with NCI-H522 lung it was 13.1 µM; with SF-539 CNS, 58.9 µM; with OVCAR-3 ovarian, 54.5 µM.
On to `Nc1ccc(OCC(O)N2C(=O)c3ccccc3C2=O)cc1` (stereo not given), for which the TGI in the assay with U251 CNS, with MDA-N, in the assay with COLO 205 colon, with MALME-3M melanoma, with CCRF-CEM leukemia and in the assay with NCI-H522 lung was greater than 100 µM each time. In addition, the TGI with OVCAR-3 ovarian was greater than 100 µM.
